Laboratory results published in patent US9394311B2, “Triazolo compounds as PDE10 inhibitors” (Hoffmann-La Roche Inc., priority 2012, dated 2016).

These compounds were tested against human PDE10A (Homo sapiens (Human), UniProt Q9Y233) (assay: human PDE10A full length Scintillation Proximity Assay (SPA)). Conditions: PDE10A full length enzyme, 50 nM cGMP / [3H]-cGMP substrate, 20 minutes at room temperature.
Assay type: biochemical
Procedure, shortened: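 Full-length human PDE10A with 50 nM cGMP plus 50 nM [3H]-cGMP in 20 mM HEPES pH 7.5, 10 mM MgCl2, 0.05 mg/ml BSA; 20 min at room temperature. Stopped with yttrium silicate SPA beads in zinc sulphate, scintillation counted; IC50 from concentration range.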

human PDE10A, sequence (Q9Y233 other isoform, or with tags, fused parts or gaps): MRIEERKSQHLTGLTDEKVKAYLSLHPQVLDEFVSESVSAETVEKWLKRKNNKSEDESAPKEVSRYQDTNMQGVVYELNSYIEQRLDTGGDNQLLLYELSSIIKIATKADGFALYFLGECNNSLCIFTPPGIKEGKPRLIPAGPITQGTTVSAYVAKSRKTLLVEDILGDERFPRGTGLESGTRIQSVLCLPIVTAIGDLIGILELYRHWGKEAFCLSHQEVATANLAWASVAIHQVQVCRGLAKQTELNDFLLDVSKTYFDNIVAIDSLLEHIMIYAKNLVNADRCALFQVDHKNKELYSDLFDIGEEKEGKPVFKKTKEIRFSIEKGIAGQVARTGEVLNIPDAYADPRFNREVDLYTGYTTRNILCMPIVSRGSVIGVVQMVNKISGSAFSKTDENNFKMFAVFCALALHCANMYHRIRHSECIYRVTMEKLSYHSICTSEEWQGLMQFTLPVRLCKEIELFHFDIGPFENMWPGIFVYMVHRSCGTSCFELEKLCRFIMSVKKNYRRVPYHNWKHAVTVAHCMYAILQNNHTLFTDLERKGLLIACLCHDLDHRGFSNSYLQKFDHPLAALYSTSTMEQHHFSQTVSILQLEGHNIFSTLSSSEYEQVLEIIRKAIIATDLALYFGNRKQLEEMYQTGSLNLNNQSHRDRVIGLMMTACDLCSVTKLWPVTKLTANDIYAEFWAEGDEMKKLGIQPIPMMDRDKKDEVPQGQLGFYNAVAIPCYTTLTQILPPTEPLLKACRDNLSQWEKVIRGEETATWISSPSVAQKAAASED

IC50	Structure (SMILES)
0.23 nM	COCCOc1cc(Cl)c(C)n2nc(CCc3nc(N4CCCC4)nn3C)nc12 [Example 119, 6-Chloro-8-(2-methoxyethoxy)-5-methyl-2-[2-(2-methyl-5-pyrrolidin-1-yl-1,2,4-triazol-3-yl)ethyl]-[1,2,4]triazolo[1,5-a]pyridine]
0.36 nM	Cc1c(Cl)cc(OC2CCOCC2)c2nc(CCc3nc(N4CCCC4)nn3C)nn12 [Example 120, 6-Chloro-5-methyl-2-(2-(1-methyl-3-(pyrrolidin-1-yl)-1H-1,2,4-triazol-5-yl)ethyl)-8-(tetrahydro-2H-pyran-4-yloxy)-[1,2,4]triazolo[1,5-a]pyridine]
1.37 nM	Cc1c(Cl)cc(OCCN2CCOCC2)c2nc(CCc3nc(N4CCCC4)nn3C)nn12 [Example 121, 4-[2-[[6-Chloro-5-methyl-2-[2-(2-methyl-5-pyrrolidin-1-yl-1,2,4-triazol-3-yl)ethyl]-[1,2,4]triazolo[1,5-a]pyridin-8-yl]oxy]ethyl]morpholine]
0.35 nM	Cc1c(Cl)cc(C(F)(F)F)c2nc(CCc3nc(N4CCCC4)nn3C3CCOCC3)nn12 [Example 122, 6-Chloro-5-methyl-2-(2-(3-(pyrrolidin-1-yl)-1-(tetrahydro-2H-pyran-4-yl)-1H-1,2,4-triazol-5-yl)ethyl)-8-(trifluoromethyl)-[1,2,4]triazolo[1,5-a]pyridine]
2.03 nM	Cc1ncc(C)n2nc(CCc3nc(N4CCCC4)nn3C3CC3)nc12 [Example 123a, 2-[2-(2-Cyclopropyl-5-pyrrolidin-1-yl-2H-[1,2,4]triazol-3-yl)-ethyl]-5,8-dimethyl-[1,2,4]triazolo[1,5-a]pyrazine]
8.2 nM	Cc1ncc(C)n2nc(CCc3nc(N4CCCC4)n(C4CC4)n3)nc12 [Example 123b, 2-[2-(1-Cyclopropyl-5-pyrrolidin-1-yl-1H-[1,2,4]triazol-3-yl)-ethyl]-5,8-dimethyl-[1,2,4]triazolo[1,5-a]pyrazine]
14.1 nM	COC[C@H]1CCCN1c1nc(CCc2nc3c(C)ncc(C)n3n2)n(C)n1 [Example 124, 2-{2-[5-((R)-2-Methoxymethyl-pyrrolidin-1-yl)-2-methyl-2H-[1,2,4]triazol-3-yl]-ethyl}-5,8-dimethyl-[1,2,4]triazolo[1,5-a]pyrazine]
2.71 nM	Cc1c(Cl)cc(C(F)(F)F)c2nc(CCc3nc(N4CC[C@@H](F)C4)nn3C)nn12 [Example 127, (R)-6-Chloro-2-(2-(3-(3-fluoropyrrolidin-1-yl)-1-methyl-1H-1,2,4-triazol-5-yl)ethyl)-5-methyl-8-(trifluoromethyl)-[1,2,4]triazolo[1,5-a]pyridine]
0.72 nM	Cc1c(Cl)cc(C(F)(F)F)c2nc(CCc3nc(N4CCCC4)n[nH]3)nn12 [Example 128, 6-Chloro-5-methyl-2-(2-(3-(pyrrolidin-1-yl)-1H-1,2,4-triazol-5-yl)ethyl)-8-(trifluoromethyl)-[1,2,4]triazolo[1,5-a]pyridine]
48.1 nM	Cc1ncc(C)n2nc(CCc3nc(N4CCC(C(F)F)C4)nn3C)nc12 (centres unmarked) [Example 129, 2-{2-[5-(3-Difluoromethyl-pyrrolidin-1-yl)-2-methyl-2H-[1,2,4]triazol-3-yl]-ethyl}-5,8-dimethyl-[1,2,4]triazolo[1,5-a]pyrazine]
0.89 nM	Cc1c(Cl)cc(C(F)F)c2nc(CCc3nc(N4CCCC4)nn3C)nn12 [Example 130, 6-Chloro-8-(difluoromethyl)-5-methyl-2-(2-(1-methyl-3-(pyrrolidin-1-yl)-1H-1,2,4-triazol-5-yl)ethyl)-[1,2,4]triazolo[1,5-a]pyridine]
1.58 nM	Cc1c(Cl)cc(C(F)(F)F)c2nc(CCc3nc(N4CCCC4)n(C4CC4)n3)nn12 [Example 131, 6-Chloro-2-(2-(1-cyclopropyl-5-(pyrrolidin-1-yl)-1H-1,2,4-triazol-3-yl)ethyl)-5-methyl-8-(trifluoromethyl)-[1,2,4]triazolo[1,5-a]pyridine]
0.72 nM	Cc1c(Cl)cc(C(F)(F)F)c2nc(CCc3nc(N4CCCC4)nn3C3CC3)nn12 [Example 132, 6-Chloro-2-(2-(1-cyclopropyl-3-(pyrrolidin-1-yl)-1H-1,2,4-triazol-5-yl)ethyl)-5-methyl-8-(trifluoromethyl)-[1,2,4]triazolo[1,5-a]pyridine]
17.8 nM	COc1ccc(Cn2nc(C#Cc3cnc4ccc(Cl)cc4n3)nc2N2CCCC2)cc1 [Example 133, 7-chloro-2-((1-(4-methoxybenzyl)-5-(pyrrolidin-1-yl)-1H-1,2,4-triazol-3-yl)ethynyl)quinoxaline]
33 nM	Clc1ccc2ncc(CCc3n[nH]c(N4CCCC4)n3)nc2c1 [Example 134, 7-chloro-2-(2-(5-(pyrrolidin-1-yl)-1H-1,2,4-triazol-3-yl)ethyl)quinoxaline]
10.7 nM	Cc1nc2cc(Cl)ccc2nc1C#Cc1nc(N2CCCC2)nn1C [Example 135, 6-Chloro-3-methyl-2-(2-methyl-5-pyrrolidin-1-yl-2H-[1,2,4]triazol-3-ylethynyl)-quinoxaline]
5.17 nM	Cc1nc2ccc(Cl)cc2nc1C#Cc1nc(N2CCCC2)nn1C [Example 136, 6-Chloro-2-methyl-3-(2-methyl-5-pyrrolidin-1-yl-2H-[1,2,4]triazol-3-ylethynyl)-quinoxaline]
